{"source": "patent US9248088B2", "about": "“Compositions and methods for skin conditioning” (TELOMERASE ACTIVATION SCIENCES, INC., priority 2003, dated 2016)", "key": {"[1]": {"tested_on": "aging neonatal keratinocytes", "test": "scratch assay (cell reconfluence), aging neonatal keratinocytes", "assay_type": "cell-based, human", "conditions": "FIG. 7; compared with 50 ng/mL PDGF", "procedure": "(§1) As used herein, “as measured in a scratch assay” refers to measurement of cell reconfluence in keratinocytes or fibroblasts according to the following protocol, and expressed as the value of SC shown in the formula below. Cells are plated in flasks ((5×10^5 cells per flask) and cultured for two days in a humidified chamber at 5% CO2, 37° C. A 2 ml plastic pipette is gently dragged thought the culture to “scratch” the cell surface. The ideal scratch is approximately 2-3 mm wide and 50 mm long (along the long axis of the tissue culture flask). The cells are retreated with medium containing either vehicle (control sample) or test compositions at multiple dilutions. A scratch area is identified, the flask marked, and the appearance of the cells documented photographically over 3-4 days continued culturing of the cells. Amount of cell reconfluence, or closure of the scratch, is determined by measuring width of the scratch over time for compound-treated samples relative to vehicle-treated or other control cells. […] Percentage of closure is calculated by the following formula: SC=100−[100×Wn/W0], where Wn is the width of the scratch on day n and W0 is the width of the scratch on day one (i.e. immediately after scratching)."}, "[2]": {"tested_on": "aging adult keratinocytes", "test": "scratch assay (cell reconfluence), aging adult keratinocytes", "assay_type": "cell-based, human", "conditions": "for Approx. scratch width (arbitrary units) Day 1 test: 0.1 μg/ml (about 0.13 μM) 1", "procedure": "As used herein, “as measured in a scratch assay” refers to measurement of cell reconfluence in keratinocytes or fibroblasts according to the following protocol, and expressed as the value of SC shown in the formula below. Cells are plated in flasks ((5×10^5 cells per flask) and cultured for two days in a humidified chamber at 5% CO2, 37° C. A 2 ml plastic pipette is gently dragged thought the culture to “scratch” the cell surface. The ideal scratch is approximately 2-3 mm wide and 50 mm long (along the long axis of the tissue culture flask). The cells are retreated with medium containing either vehicle (control sample) or test compositions at multiple dilutions. A scratch area is identified, the flask marked, and the appearance of the cells documented photographically over 3-4 days continued culturing of the cells. Amount of cell reconfluence, or closure of the scratch, is determined by measuring width of the scratch over time for compound-treated samples relative to vehicle-treated or other control cells. […] Percentage of closure is calculated by the following formula: SC=100−[100×Wn/W0], where Wn is the width of the scratch on day n and W0 is the width of the scratch on day one (i.e. immediately after scratching). […] Briefly, a scratch, typically about 2-3 mm in width, is created through a mass of plated cells, and the time needed for the cells to become confluent is observed. […] (GRN163 is a telomerase inhibitor oligonucleotide that targets the template region of the telomerase RNA component. Specifically, GRN163 is a 13-mer N3′→P5′ thiophosphoramidate oligonucleotide, described in detail in PCT Pubn. No. WO 01/18015. GRN137227 is a 13-mer N3′→P5′ thiophosphoramidate control oligonucleotide having a mismatched sequence.)"}, "[3]": {"tested_on": "young neonatal keratinocytes", "test": "scratch assay (cell reconfluence), young neonatal keratinocytes", "assay_type": "cell-based, human", "conditions": "FIG. 5, 2 at 0.01 μM; for SCtest (percentage of closure): SC=100-[100×Wn/W0]", "procedure": "as §1"}, "[4]": {"tested_on": "telomerase activity in HEKneoP cells (neonatal keratinocytes)", "test": "TRAP assay of telomerase activity in neonatal keratinocytes", "assay_type": "cell-based, human", "conditions": "for MEC (minimum effective concentration producing telomerase activity twice that of DMSO control): HEKneoP cells, 100% greater than DMSO control; for telomerase activity (result in words): neonatal keratinocytes / normal cells"}, "[5]": {"assay_type": "in vitro ADME", "conditions": "human", "procedure": "J. Franz et al., Abst. J Invest Dermatol 94:525, 1990). […] The receptor solution concentration (representing the inner surface of the skin) was then collected at predetermined intervals over 48 hours, to determine extent and rate of appearance of labeled compound."}}, "note": "Like-named read-outs stand apart in the source and are kept apart here."}
{"compound": "CC(C)(O)[C@@H]1CC[C@](C)([C@H]2[C@@H](O)C[C@@]3(C)[C@@H]4C[C@H](O[C@@H]5O[C@H](CO)[C@@H](O)[C@H](O)[C@H]5O)[C@H]5C(C)(C)[C@@H](O[C@@H]6OC[C@@H](O)[C@H](O)[C@H]6O)CC[C@@]56C[C@@]46CC[C@]23C)O1", "note": "[Compound 1, astragaloside IV]", "values": [{"measurement": "promotion of cell reconfluence", "setting": "[1]", "value": "comparable to that of PDGF"}, {"measurement": "SCtest (percentage of closure)", "setting": "[2]; FIG. 4, 0.1 μg/ml 1, SC=100-[100×Wn/W0]", "value": 100, "unit": "%"}, {"measurement": "Approx. scratch width (arbitrary units) Day 1 test", "setting": "[2]; FIG. 4, first 'Day 1 test' column", "value": 17, "unit": "arbitrary units"}, {"measurement": "Approx. scratch width (arbitrary units) Day 1 test", "setting": "[2]; FIG. 4, second 'Day 1 test' column", "value": 0, "unit": "arbitrary units"}, {"measurement": "confluence of treated cells", "setting": "[2]; FIG. 4, 0.1 μg/ml (about 0.13 μM), versus control cells at day 4", "value": "confluent at day 4"}, {"measurement": "cell proliferation", "setting": "[2]; FIG. 6, 1 alone", "value": "promotion of cell proliferation"}, {"measurement": "SCtest (percentage of closure)", "setting": "[3]", "value": 100, "unit": "%"}, {"measurement": "Approx. scratch width (arbitrary units) Day 1 test", "setting": "[3]; first 'Day 1 test' column", "value": 18, "unit": "arbitrary units"}, {"measurement": "Approx. scratch width (arbitrary units) Day 1 test", "setting": "[3]; second 'Day 1 test' column", "value": 0, "unit": "arbitrary units"}, {"measurement": "MEC (minimum effective concentration producing telomerase activity twice that of DMSO control)", "setting": "[4]", "value": 0.01, "unit": "µM"}, {"measurement": "telomerase activity", "setting": "[4]; at 1.0 μM, maximum of the concentration series", "value": "about 360 % of control"}, {"measurement": "telomerase activity (result in words)", "setting": "[4]", "value": "increase in telomerase activity"}]}
{"compound": "CC(C)(O)[C@@H]1CC[C@](C)([C@H]2[C@@H](O)C[C@@]3(C)[C@@H]4C[C@H](O)[C@H]5C(C)(C)[C@@H](O)CC[C@@]56C[C@@]46CC[C@]23C)O1", "note": "[Compound 2, cycloastragenol]", "values": [{"measurement": "SCtest (percentage of closure)", "setting": "[3]", "value": 90.5, "unit": "%"}, {"measurement": "Approx. scratch width (arbitrary units) Day 1 test", "setting": "[3]; first 'Day 1 test' column", "value": 21, "unit": "arbitrary units"}, {"measurement": "Approx. scratch width (arbitrary units) Day 1 test", "setting": "[3]; second 'Day 1 test' column", "value": 2, "unit": "arbitrary units"}, {"measurement": "total delivery over 48 hours", "setting": "[5]; 0.01 wt %", "value": "~66", "unit": "ng"}, {"measurement": "total delivery over 48 hours", "setting": "[5]; 0.25 wt %", "value": "~600", "unit": "ng"}, {"measurement": "MEC (minimum effective concentration producing telomerase activity twice that of DMSO control)", "setting": "[4]", "value": 0.01, "unit": "µM"}, {"measurement": "telomerase activity", "setting": "[4]; at 0.1 μM, maximum of the concentration series", "value": "about 300 % of control"}, {"measurement": "telomerase activity (result in words)", "setting": "[4]", "value": "increase of telomerase activity"}]}
{"compound": "CC(C)(O)[C@@H]1CC[C@](C)([C@H]2[C@@H](O)C[C@@]3(C)[C@@H]4C[C@H](O)[C@H]5C(C)(C)[C@@H](O)CC[C@]5(C)C4=CC[C@]23C)O1", "note": "[Compound 3, astragenol]", "values": [{"measurement": "MEC (minimum effective concentration producing telomerase activity twice that of DMSO control)", "setting": "[4]", "value": 0.03, "unit": "µM"}]}
{"compound": "CC(C)(O)[C@@H]1CC[C@](C)([C@H]2[C@@H](O)C[C@@]3(C)[C@@H]4CC=C5C(=CC[C@H](O)C5(C)C)[C@]4(C)CC[C@]23C)O1", "note": "[Compound 5, 20R,24S-epoxy-3β,16β,25-trihydroxy-9β-methyl-19-norlanost-1,5-diene]", "values": [{"measurement": "MEC (minimum effective concentration producing telomerase activity twice that of DMSO control)", "setting": "[4]", "value": 0.10, "unit": "µM"}]}
{"compound": "CC(C)(O)[C@@H]1CC[C@](C)([C@H]2[C@@H](O)C[C@@]3(C)[C@@H]4C[C@H](OC5O[C@H](CO)[C@@H](O)[C@H](O)[C@H]5O)[C@H]5C(C)(C)[C@@H](O)CC[C@@]56C[C@@]46CC[C@]23C)O1", "note": "(stereo partly drawn) [Compound 6, cycloastragenol 6-β-D-glucopyranoside]", "values": [{"measurement": "MEC (minimum effective concentration producing telomerase activity twice that of DMSO control)", "setting": "[4]", "value": 3.2, "unit": "µM"}]}
{"compound": "CC(C)(O)[C@@H]1CC[C@](C)([C@H]2[C@@H](O)C[C@@]3(C)[C@@H]4C[C@H](O)[C@H]5C(C)(C)[C@@H](OC6OC[C@@H](O)[C@H](O)[C@H]6O)CC[C@@]56C[C@@]46CC[C@]23C)O1", "note": "(stereo partly drawn) [Compound 7, cycloastragenol 3-β-D-xylopyranoside]", "values": [{"measurement": "MEC (minimum effective concentration producing telomerase activity twice that of DMSO control)", "setting": "[4]", "value": 3.2, "unit": "µM"}]}
{"compound": "CC(C)=CCC[C@](C)(O)[C@H]1CC[C@]2(C)[C@@H]1[C@H](O)C[C@@H]1[C@@]3(C)CC[C@H](O)C(C)(C)[C@@H]3[C@@H](O[C@@H]3O[C@H](CO)[C@@H](O)[C@H](O)[C@H]3O)C[C@]12C", "note": "[Compound 8, ginsenoside RH1]", "values": [{"measurement": "MEC (minimum effective concentration producing telomerase activity twice that of DMSO control)", "setting": "[4]", "value": 10, "unit": "µM"}]}
{"compound": "EGF: EGF (epidermal growth factor), used at 10 nM as comparison in the TRAP assay [reference compound]", "values": [{"measurement": "telomerase activity", "setting": "[4]; cells treated with 10 nM EGF", "value": "about 200%"}]}
{"compound": "astragaloside IV 16-one [Compound 4]", "values": [{"measurement": "MEC (minimum effective concentration producing telomerase activity twice that of DMSO control)", "setting": "[4]", "value": 0.03, "unit": "µM"}]}
